Reference: the CheMixHub ionic liquid set

Assay: xn = mol fraction of the nth substance listed
Conditions: 101 kPa

CCCCCCCCCCCC[N+](C)(C)Cc1ccccc1.[Cl-] + CC(C)[C@H](NC(=O)CN)C(=O)O + O
electrical conductivity [S/m]
Conditions	293.15 K	298.15 K	303.15 K	308.15 K	313.15 K
x2 = 0.0008945, x1 = 0.0002772	0.0811	0.0911	0.102	0.114	0.127
x2 = 0.0008945, x1 = 0.0002957	0.0841	0.0945	0.106	0.118	0.132
x2 = 0.0008945, x1 = 0.0003197	0.0879	0.099	0.112	0.124	0.138
x2 = 0.0008946, x1 = 0.0001647	0.0603	0.0672	0.0747	0.0825	0.0908
x2 = 0.0008946, x1 = 0.0001903	0.066	0.0736	0.0819	0.0907	0.1
x2 = 0.0008946, x1 = 0.0002151	0.0707	0.0791	0.0882	0.0978	0.108
x2 = 0.0008946, x1 = 0.0002373	0.0746	0.0834	0.0932	0.103	0.115
x2 = 0.0008946, x1 = 0.0002578	0.0779	0.0874	0.0977	0.109	0.121
x2 = 0.0008947, x1 = 7.118e-05	0.0298	0.0334	0.0372	0.041	0.0451
x2 = 0.0008947, x1 = 9.37e-05	0.0378	0.0423	0.0471	0.052	0.0571
x2 = 0.0008947, x1 = 0.0001168	0.0458	0.0513	0.0569	0.0627	0.0689
x2 = 0.0008947, x1 = 0.00014	0.0533	0.0596	0.0662	0.0729	0.0801
x2 = 0.0008948, x1 = 4.976e-05	0.022	0.0246	0.0275	0.0304	0.0335
x2 = 0.001798, x1 = 0.0001623	0.0582	0.0649	0.0722	0.0797	0.0879
x2 = 0.001798, x1 = 0.0001897	0.0643	0.0719	0.08	0.0885	0.098
x2 = 0.001798, x1 = 0.0002152	0.0693	0.0776	0.0866	0.096	0.106
x2 = 0.001798, x1 = 0.0002386	0.0736	0.0825	0.0922	0.102	0.114
x2 = 0.001798, x1 = 0.0002594	0.0773	0.0868	0.097	0.108	0.12
x2 = 0.001798, x1 = 0.0002777	0.0804	0.0903	0.101	0.113	0.126
x2 = 0.001798, x1 = 0.0002962	0.0834	0.0939	0.105	0.118	0.131
x2 = 0.001798, x1 = 0.0003218	0.0878	0.099	0.112	0.124	0.139
x2 = 0.001799, x1 = 4.099e-05	0.0199	0.0223	0.0251	0.0278	0.0307
x2 = 0.001799, x1 = 6.551e-05	0.0284	0.0319	0.0356	0.0393	0.0433
x2 = 0.001799, x1 = 8.875e-05	0.0363	0.0406	0.0453	0.0499	0.0549
x2 = 0.001799, x1 = 0.0001114	0.0437	0.0488	0.0543	0.0598	0.066
x2 = 0.001799, x1 = 0.000136	0.0512	0.0571	0.0635	0.0695	0.0771

CCCC[N+](CCCC)(CCCC)CCCC.[Cl-] + CSCC[C@H](N)C(=O)O
Conditions	electrical conductivity, x2 = 0.08333 [S/m]	electrical conductivity, x2 = 0.09091 [S/m]	electrical conductivity, x2 = 0.1 [S/m]	viscosity, x2 = 0.08333 [mPa·s]	viscosity, x2 = 0.09091 [mPa·s]	viscosity, x2 = 0.1 [mPa·s]
303.15 K	0.0061	0.0165	0.0113	2200	2300	2400
313.15 K	0.016	0.026	0.022	1400	1570	1560
323.15 K	0.0259	0.0418	0.0313	415	530	480
333.15 K	0.0749	0.0929	0.0837	221	295	290
343.15 K	0.107	0.129	0.12	119	157	148
353.15 K	0.14	0.17	0.15	70	94	87
